Results published in EP0509769B1, “Heterocyclic amides having HLE inhibiting activity” (ZENECA LIMITED, priority 1991, dated 1992).

Tests used:
[1] = in vivo test (not specified further)
[2] = target: T1, human neutrophil elastase (HNE) (Homo sapiens, UniProt P08246); test: Acute Hemorrhagic Assay: lung hemorrhage in hamsters after intratracheal HNE; format: in vivo, hamster; conditions: dose of 5 mg/kg by mouth, 30 min prior to administration of HNE; male Syrian hamsters
T1 construct: host or cells: exogenous human enzyme instilled into the trachea of male Syrian hamsters
T1 sequence (P08246 30-267): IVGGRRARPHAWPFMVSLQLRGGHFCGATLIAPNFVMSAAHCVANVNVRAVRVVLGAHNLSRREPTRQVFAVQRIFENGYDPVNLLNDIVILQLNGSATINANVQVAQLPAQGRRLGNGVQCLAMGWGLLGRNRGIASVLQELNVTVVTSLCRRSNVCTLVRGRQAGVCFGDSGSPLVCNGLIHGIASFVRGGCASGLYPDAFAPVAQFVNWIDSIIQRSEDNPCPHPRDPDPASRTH
Description: This assay relies on monitoring only the amount of hemorrhage in the lung following intratracheal administration of human neutrophil elastase (HNE). Hemorrhage is quantified by disrupting erythrocytes recovered in lung lavage fluid and comparing that to dilutions of whole hamster blood. […] Four hours after enzyme administration, the animals are killed with an overdose of pentobarbital sodium, the thorax opened and the lungs and trachea removed. The excised lungs are lavaged with three changes of 2 mL normal saline via a tracheal cannula. The recovered lavages are pooled, the volumes (about 5 mL) are recorded and the lavages stored at 4 °C until assayed. For calculation of the amount of blood in each sample, the thawed lavages and a sample of whole hamster blood are sonicated to disrupt erythrocytes and appropriately diluted into individual wells of a 96-well microtiter plate. The optical densities (OD) of the disrupted lavages and blood samples are determined at 405 nm. The (µL blood equivalents) / (mL lavage) are determined by comparing the OD of the test samples with the OD of the standard curve prepared from whole hamster blood. The total µL equivalents of blood recovered is determined by multiplying recovered lavage volume by the (µL blood equivalents) / (mL lavage) for each sample.

| Compound | activity in an in vivo test [1] | inhibition of hemorrhage [2] |
| --- | --- | --- |
| CC(C)C(NC(=O)Cn1c(-c2ccccc2)ccc(N)c1=O)C(=O)C(F)(F)F (stereo not drawn) [Example 49, 2-(3-Amino-2-oxo-6-phenyl-1,2-dihydro-1-pyridyl)-N-(3,3,3-trifluoro1-isopropyl-2-oxopropyl)acetamide] | activity | – |
| CC(C)C(NC(=O)Cn1c(-c2ccccc2)ccc(NC(=O)Cc2ccc(N)cc2)c1=O)C(=O)C(F)(F)F.Cl (stereo not drawn) [Example 159, 2-[3-(4-Aminophenylacetylamino)-2-oxo-6-phenyl-1,2-dihydro-1-pyridyl]-N-(3,3,3-trifluoro-1-isopropyl-2-oxopropyl)acetamide hydrochloride] | activity | – |
| CC(C)C(NC(=O)Cn1c(-c2ccccc2)ccc(NC(=O)C(F)(F)F)c1=O)C(=O)C(F)(F)F (stereo not drawn) [Example 167, 2-(3-trifluoroacetylamino-2-oxo-6-phenyl-1,2-dihydro-1-pyridyl)-N-(3,3,3-trifluoro-1-isopropyl-2-oxopropyl)acetamide] | – | statistically significant inhibition of hemorrhage |
